Laboratory results from ChEMBL document CHEMBL1201862, “PubChem BioAssay data set” (2004).
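Five compound concentrations were applied to cells in 96-well plates for 48 hours; endpoints were derived by simple linear interpolation of the resulting dose-response curve. GI50 is the concentration that inhibits growth by half.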 The source made the active and inactive calls. Rule as the data show it: active = GI50 up to about 1.1 µM and inactive = higher. Square brackets hold non-standard residues; d marks the D form. Peptide text beside a SMILES is read from it. * marks the point of attachment. ξ: configuration not given here. Propanoyl(3-(4-MeO-Ph)) = COc1ccc(CCC(=O)*)cc1; Thr(3ξ) = CC(O)[C@H](N)C(=O)O; dNMeL = CN[C@H](CC(C)C)C(=O)O; ξLac = CC(O)C(=O)O

What was measured:
Assay in all cases: growth of human tumour cells (NCI), 48 h
A498 = test system: A498
A549 = test system: A549
ACHN = test system: ACHN
COLO 205 = test system: COLO 205
HCT-116 = test system: HCT-116
HOP-62 = test system: HOP-62
IGROV-1 = test system: IGROV-1
M14 = test system: M14
MCF7 = test system: MCF7
MOLT-4 = test system: MOLT-4
NCI-H226 = test system: NCI-H226
OVCAR-3 = test system: OVCAR-3
PC-3 = test system: PC-3
SF-268 = test system: SF-268
SF-295 = test system: SF-295
SF-539 = test system: SF-539
SK-MEL-5 = test system: SK-MEL-5
SK-OV-3 = test system: SK-OV-3
SN12C = test system: SN12C

Row | SMILES | GI50 (A498) | GI50 (A549) | GI50 (ACHN) | GI50 (COLO 205) | GI50 (HCT-116) | GI50 (HOP-62) | GI50 (IGROV-1) | GI50 (M14) | GI50 (MCF7) | GI50 (MOLT-4) | GI50 (NCI-H226) | GI50 (OVCAR-3) | GI50 (PC-3) | GI50 (SF-268) | GI50 (SF-295) | GI50 (SF-539) | GI50 (SK-MEL-5) | GI50 (SK-OV-3) | GI50 (SN12C)
1 | COC(=O)[C@@H](NC(=O)[C@@H](CC(C)C)N(C)C(=O)[C@@H]1CCCN1C(=O)C(C)O)C(C)OC(=O)CCc1ccc(OC)cc1 (some centres undefined) (H-[ξLac]P[dNMeL][Thr(3ξ)](Propanoyl(3-(4-MeO-Ph)))-OMe) | > 100 µM (inactive) | > 100 µM (inactive) | > 100 µM (inactive) | > 100 µM (inactive) | > 100 µM (inactive) | > 100 µM (inactive) | > 100 µM (inactive) | > 100 µM (inactive) | > 100 µM (inactive) | 60.5 µM (inactive) | > 100 µM (inactive) | > 100 µM (inactive) | > 100 µM (inactive) | > 100 µM (inactive) | > 100 µM (inactive) | > 100 µM (inactive) | > 100 µM (inactive) | > 100 µM (inactive) | > 100 µM (inactive)
2 | CCOC(=O)C(=Cc1[nH]c2ccccc2c1-c1c[nH]c2ccccc12)C(=O)OCC | 14.5 µM (inactive) | 16.6 µM (inactive) | 12.2 µM (inactive) | 16.2 µM (inactive) | 10.8 µM (inactive) | 14.2 µM (inactive) | 11.1 µM (inactive) | 10 µM (inactive) | 4.71 µM (inactive) | 0.923 µM (active) | 14 µM (inactive) | 9.33 µM (inactive) | 10.3 µM (inactive) | 13.3 µM (inactive) | 12.1 µM (inactive) | 18.5 µM (inactive) | 15.5 µM (inactive) | 20.3 µM (inactive) | 15 µM (inactive)
3 | O=[N+]([O-])c1ccc(S(=O)(=O)Cc2ccccc2)c([N+](=O)[O-])c1 | 15.6 µM (inactive) | 11.4 µM (inactive) | 1.58 µM (inactive) | 1.79 µM (inactive) | 1.87 µM (inactive) | 2.9 µM (inactive) | 2.6 µM (inactive) | 1.87 µM (inactive) | 1.87 µM (inactive) | 0.139 µM (active) | 21.9 µM (inactive) | 1.44 µM (inactive) | 1.78 µM (inactive) | 3.16 µM (inactive) | 16.6 µM (inactive) | 1.99 µM (inactive) | 2.12 µM (inactive) | 6.78 µM (inactive) | 1.91 µM (inactive)
4 | COC(=O)Nc1nc2ccccc2[nH]1 [CARBENDAZIM] | > 100 µM (inactive) | 6.97 µM (inactive) | > 56.1 µM (inactive) | 5.05 µM (inactive) | 4.21 µM (inactive) | 11.1 µM (inactive) | 8.17 µM (inactive) | 4.69 µM (inactive) | 5.07 µM (inactive) | 6.34 µM (inactive) | 10.4 µM (inactive) | 4 µM (inactive) | 15.3 µM (inactive) | > 51.3 µM (inactive) | 4.72 µM (inactive) | 5.2 µM (inactive) | 6.03 µM (inactive) | 3.44 µM (inactive) | 21.9 µM (inactive)
5 | Cc1cc(-c2nc3ccccc3s2)ccc1N | 4.34 µM (inactive) | 32.8 µM (inactive) | 45.4 µM (inactive) | 40.7 µM (inactive) | 46.7 µM (inactive) | 49.9 µM (inactive) | 0.0219 µM (active) | 36.8 µM (inactive) | < 0.0133 µM (active) | 13.5 µM (inactive) | 8.67 µM (inactive) | 35.9 µM (inactive) | 26 µM (inactive) | 52 µM (inactive) | 43 µM (inactive) | > 71.1 µM (inactive) | 21.9 µM (inactive) | 55.5 µM (inactive) | 32.9 µM (inactive)
6 | Cc1cc(/N=C/c2ccc(F)cc2)n(-c2ccccc2)n1 | 42.3 µM (inactive) | 92 µM (inactive) | > 100 µM (inactive) | 37.1 µM (inactive) | > 100 µM (inactive) | > 100 µM (inactive) | 84.3 µM (inactive) | > 100 µM (inactive) | 46.7 µM (inactive) | 35.3 µM (inactive) | > 100 µM (inactive) | > 100 µM (inactive) | > 100 µM (inactive) | > 100 µM (inactive) | 57.5 µM (inactive) | > 100 µM (inactive) | 52.5 µM (inactive) | > 100 µM (inactive) | 57.3 µM (inactive)
